17 compounds from patent publication US9394310B2, “Carbocycle-substituted purine and 7-deazapurine compounds” (Epizyme, Inc., priority 2010, dated 2016) can be followed below.

Where a name gives a salt, the structure may show the parent alone.

In the test the target is T1, DOT1L (1-416) (Homo sapiens, UniProt Q8TEK3).
T1 construct: 40 μl per well of DOT1L (1-416) (0.25 nM final concentration in assay buffer)
T1 sequence (Q8TEK3 1-416): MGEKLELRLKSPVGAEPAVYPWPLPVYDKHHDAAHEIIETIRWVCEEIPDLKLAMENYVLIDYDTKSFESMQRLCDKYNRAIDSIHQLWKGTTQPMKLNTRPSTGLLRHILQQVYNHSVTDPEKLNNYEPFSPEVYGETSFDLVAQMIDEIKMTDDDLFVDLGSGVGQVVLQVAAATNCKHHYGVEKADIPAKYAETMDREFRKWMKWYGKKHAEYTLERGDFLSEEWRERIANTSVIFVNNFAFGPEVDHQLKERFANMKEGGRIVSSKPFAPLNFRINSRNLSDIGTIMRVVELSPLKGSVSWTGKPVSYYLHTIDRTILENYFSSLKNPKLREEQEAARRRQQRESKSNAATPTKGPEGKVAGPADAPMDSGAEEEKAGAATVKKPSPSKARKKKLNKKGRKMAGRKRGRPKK
As to the kind of experiment: Determination of IC50: DOT1L (1-416) methyltransferase assay with 3H-SAM and oligonucleosome, Flashplate scintillation readout. It is filed as biochemical. Particulars: 0.25 nM DOT1L (1-416), 30 min preincubation, 120 min reaction at room temperature, oligonucleosome substrate. Here is the method:
Compound was serially diluted 3 fold in DMSO for 10 points and 1 μl was plated in a 384 well microtiter plate. Positive control (100% inhibition standard) was 2.5 uM final concentration of S-adenosyl-L-homocysteine and negative control (0% inhibition standard) contained 1 μl of DMSO. Compound was then incubated for 30 minutes with 40 μl per well of DOT1L (1-416) (0.25 nM final concentration in assay buffer: 20 mM TRIS, pH 8.0, 10 mM NaCl, 0.002% Tween20, 0.005% Bovine Skin Gelatin, 100 mM KCl, and 0.5 mM DTT). 10 μl per well of substrate mix (same assay buffer with 200 nM S—[methyl-^3H]-adenosyl-L methionine, 600 nM of unlabeled […], and 20 nM oligonucleosome) was added to initiate the reaction. Reaction was incubated for 120 minutes at room temperature and quenched with 10 μl per well of 100 μM S-methyl-adenosyl-L methionine. For detection, substrate from 50 μl of reaction was immobilized on a 384 well Streptavidin coated Flashplate (Perkin Elmer) (also coated with 0.2% polyethyleneimine) and read on a Top Count scintillation counter (Perkin Elmer).
On to `CC(C)N(CCCCc1nc2cc(C(C)(C)C)ccc2[nH]1)C[C@H]1C[C@@H](n2ccc3c(N)ncnc32)[C@H](O)[C@@H]1O` [Compound 1, (1R,2S,3R,5R)-3-(4-amino-7H-pyrrolo[2,3-d]pyrimidin-7-yl)-5-(((4-(5-tert-butyl-1H-benzo[d]imidazol-2-yl)butyl)(isopropyl)amino)methyl)-cyclopentane-1,2-diol], for which the IC50 (in general, the concentration needed to halve the response being measured) was < 100 nM.
To `CC(C)N(CCCCc1nc2cc(C(C)(C)C)ccc2[nH]1)C[C@@H]1C[C@@H](n2ccc3c(N)ncnc32)[C@H](O)[C@@H]1O` [Compound 2, (1R,2S,3R,5S)-3-(4-amino-7H-pyrrolo[2,3-d]pyrimidin-7-yl)-5-(((4-(5-tert-butyl-1H-benzo[d]imidazol-2-yl)butyl)(isopropyl)amino)methyl)-cyclopentane-1,2-diol] belongs < 100 nM; to `CN(CCCNC(=O)Nc1ccc(C(C)(C)C)cc1)C[C@@H]1C[C@@H](n2cnc3c(N)ncnc32)[C@H](O)[C@@H]1O` [Compound 3, 1-(3-((((1S,2R,3S,4R)-4-(6-amino-9H-purin-9-yl)-2,3-dihydroxycyclopentyl)methyl)-(methyl)amino)propyl)-3-(4-(tert-butyl)phenyl)urea], < 1000 nM.
As for `CC(C)N(CCCCc1nc2cc(C(F)(F)F)c(Cl)cc2[nH]1)C[C@H]1C[C@@H](n2ccc3c(NC4CC4)ncnc32)[C@H](O)[C@@H]1O` [Compound 4, (1S,2R,3R,5R)-3-(((4-(6-chloro-5-(trifluoromethyl)-1H-benzo[d]imidazol-2-yl)butyl)(isopropyl)amino)methyl)-5-(4-(cyclopropylamino)-7H-pyrrolo[2,3-d]pyrimidin-7-yl)cyclopentane-1,2-diol], the IC50 was < 100 nM.
To `CN(CCCCc1nc2cc(C(F)(F)F)c(Cl)cc2[nH]1)C[C@H]1C[C@@H](n2ccc3c(NC4CC4)ncnc32)[C@H](O)[C@@H]1O` [Compound 5, (1S,2R,3R,5R)-3-(((4-(6-chloro-5-(trifluoromethyl)-1H-benzo[d]imidazol-2-yl)butyl)(methyl)amino)methyl)-5-(4-(cyclopropylamino)-7H-pyrrolo[2,3-d]pyrimidin-7-yl)cyclopentane-1,2-diol] belongs < 100 nM.
For `CC(C)N(CCCCc1nc2ccc(C(F)(F)F)cc2[nH]1)C[C@H]1C[C@@H](n2ccc3c(NC4CC4)ncnc32)[C@H](O)[C@@H]1O` [Compound 6, (1R,2S,3R,5R)-3-(4-(cyclopropylamino)-7H-pyrrolo[2,3-d]pyrimidin-7-yl)-5-((isopropyl-(4-(6-(trifluoromethyl)-1H-benzo[d]imidazol-2-yl)butyl)amino)methyl)-cyclopentane-1,2-diol] the value was < 100 nM; for `CN(CCCCc1nc2ccc(C(F)(F)F)cc2[nH]1)C[C@H]1C[C@@H](n2ccc3c(NC4CC4)ncnc32)[C@H](O)[C@@H]1O` [Compound 7, (1R,2S,3R,5R)-3-(4-(cyclopropylamino)-7H-pyrrolo[2,3-d]pyrimidin-7-yl)-5-((methyl(4-(6-(trifluoromethyl)-1H-benzo[d]imidazol-2-yl)butyl)amino)methyl)-cyclopentane-1,2-diol], < 100 nM; for `CN(CCCCc1nc2cc(Cl)c(Cl)cc2[nH]1)C[C@H]1C[C@@H](n2ccc3c(NC4CC4)ncnc32)[C@H](O)[C@@H]1O` [Compound 8, (1R,2S,3R,5R)-3-(4-(cyclopropylamino)-7H-pyrrolo[2,3-d]pyrimidin-7-yl)-5-(((4-(5,6-dichloro-1H-benzo[d]imidazol-2-yl)butyl)(methyl)amino)methyl)-cyclopentane-1,2-diol], < 100 nM.
For `CC(C)N(CCCCc1nc2cc(Cl)c(Cl)cc2[nH]1)C[C@H]1C[C@@H](n2ccc3c(NC4CC4)ncnc32)[C@H](O)[C@@H]1O` [Compound 9, (1R,2S,3R,5R)-3-(4-(cyclopropylamino)-7H-pyrrolo[2,3-d]pyrimidin-7-yl)-5-(((4-(5,6-dichloro-1H-benzo[d]imidazol-2-yl)butyl)(isopropyl)amino)methyl)-cyclopentane-1,2-diol trihydrochloride] the value was < 100 nM; for `CN(CCCNC(=O)Nc1ccc(C(C)(C)C)cc1)C[C@H]1C[C@@H](n2cnc3c(N)ncnc32)[C@H](O)[C@@H]1O` [Compound 10, 1-(3-((((1R,2R,3S,4R)-4-(6-amino-9H-purin-9-yl)-2,3-dihydroxycyclopentyl)methyl)(meth-yl)amino)propyl)-3-(4-(tert-butyl)phenyl)urea], < 100 nM; for `CC(C)(C)c1ccc2[nH]c(CCCCN(C[C@H]3C[C@@H](n4ccc5c(NC6CC6)ncnc54)[C@H](O)[C@@H]3O)S(C)(=O)=O)nc2c1` [Compound 11, N-(4-(5-(tert-butyl)-1H-benzo[d]imidazol-2-yl)butyl)-N-(((1R,2R,3S,4R)-4-(4-(cyclopropylamino)-7H-pyrrolo[2,3-d]pyrimidin-7-yl)-2,3-dihydroxycyclopentyl)methyl)-methanesulfonamide], < 1000 nM.
In the case of `CS(=O)(=O)N(CCCCc1nc2cc(C(F)(F)F)c(Cl)cc2[nH]1)C[C@H]1C[C@@H](n2ccc3c(NC4CC4)ncnc32)[C@H](O)[C@@H]1O` [Compound 12, N-(4-(6-chloro-5-(trifluoromethyl)-1H-benzo[d]imidazol-2-yl)butyl)-N-(((1R,2R,3S,4R)-4-(4-(cyclopropylamino)-7H-pyrrolo[2,3-d]pyrimidin-7-yl)-2,3-dihydroxycyclopentyl)methyl)-methanesulfonamide], the IC50 is < 1000 nM.
For `CN(CCCCc1nc2cc(C(F)(F)F)c(Cl)cc2[nH]1)C[C@H]1C[C@@H](n2ccc3c(N)ncnc32)[C@H](O)[C@@H]1O` [Compound 13, (1R,2S,3R,5R)-3-(4-amino-7H-pyrrolo[2,3-d]pyrimidin-7-yl)-5-(((4-(6-chloro-5-(trifluoromethyl)-1H-benzo[d]imidazol-2-yl)butyl)(methyl)amino)methyl)-cyclopentane-1,2-diol] the value was < 100 nM; for `CC(C)N(CCCCc1nc2cc(C(F)(F)F)c(Cl)cc2[nH]1)C[C@H]1C[C@@H](n2ccc3c(N)ncnc32)[C@H](O)[C@@H]1O` [Compound 14, (1R,2S,3R,5R)-3-(4-amino-7H-pyrrolo[2,3-d]pyrimidin-7-yl)-5-(((4-(6-chloro-5-(trifluoromethyl)-1H-benzo[d]imidazol-2-yl)butyl)(isopropyl)amino)methyl)-cyclopentane-1,2-diol], < 100 nM.
For `CS(=O)(=O)N(CCCCc1nc2cc(C(F)(F)F)c(Cl)cc2[nH]1)C[C@H]1C[C@@H](n2ccc3c(N)ncnc32)[C@H](O)[C@@H]1O` [Compound 15, N-(((1R,2R,3S,4R)-4-(4-amino-7H-pyrrolo[2,3-d]pyrimidin-7-yl)-2,3-dihydroxycyclopentyl)methyl)-N-(4-(6-chloro-5-(trifluoromethyl)-1H-benzo[d]imidazol-2-yl)butyl)methanesulfonamide] the value was < 1000 nM; for `CS(=O)(=O)N(CCCCc1nc2cc(Cl)c(Cl)cc2[nH]1)C[C@H]1C[C@@H](n2ccc3c(NC4CC4)ncnc32)[C@H](O)[C@@H]1O` [Compound 16, N-(((1R,2R,3S,4R)-4-(4-(cyclopropylamino)-7H-pyrrolo-[2,3-d]pyrimidin-7-yl)-2,3-dihydroxycyclopentyl)methyl)-N-(4-(5,6-dichloro-1H-benzo[d]imidazol-2-yl)butyl)methanesulfonamide], < 10000 nM; for `CS(=O)(=O)N(CCCCc1nc2cc(C(F)(F)F)ccc2[nH]1)C[C@H]1C[C@@H](n2ccc3c(NC4CC4)ncnc32)[C@H](O)[C@@H]1O` [Compound 17, N-(((1R,2R,3S,4R)-4-(4-(cyclopropylamino)-7H-pyrrolo-[2,3-d]pyrimidin-7-yl)-2,3-dihydroxycyclopentyl)methyl)-N-(4-(5-(trifluoromethyl)-1H-benzo[d]imidazol-2-yl)butyl)methanesulfonamide], < 10000 nM.
